Assay results: ChEMBL document CHEMBL4765293, “Specific stabilization of promoter G-Quadruplex DNA by 2,6-disubstituted amidoanthracene-9,10-dione based dimeric distamycin analogues and their selective cancer cell cytotoxicity” (Eur J Med Chem, 2020)
Active and inactive are the calls of the source. The calls are words filed in the database; no cut-off is given here.

Legend:
Quadruplex DNA [1] = test: Binding affinity to c-MYC G4-quadruplex DNA (unknown origin) assessed as fluorescence life time by fluorescence spectroscopic analysis relative to compound alone group; type: nucleic-acid assay
Quadruplex DNA [2] = test: Binding affinity to c-KIT2 G4-quadruplex DNA (unknown orgin) assessed increase in melting temperature measured after 12 hrs by thermal denaturation based spectrophotometric analysis; type: nucleic-acid assay
HeLa [3] = test: Induction of apoptosis in human HeLa cells at 5 uM after 24 to 48 hrs by annexin V/PI- staining based flow cytometric analysis; type: functional, cell-based
Quadruplex DNA [4] = test: Binding affinity to c-Myc G4-quadruplex DNA (unknown origin) by UV- vis spectrophotometric analysis; type: nucleic-acid assay
Quadruplex DNA [5] = test: Induction of stabilization of c-MYC G-quadruplex DNA template sequence (unknown orgin) assessed as inhibition of Taq polymerase mediated DNA polymerization at high concentration in presence K+ measured after 30 mins by Taq DNA polymerase stop assay; type: nucleic-acid assay
HeLa [6] = test: Induction of apoptosis in human HeLa cells at 100 uM after 24 to 48 hrs by annexin V/PI- staining based flow cytometric analysis; type: functional, cell-based; settings: time 24-48 hrs
Quadruplex DNA [7] = test: Binding affinity to c-MYC G4 quadruplex (unknown origin) assessed as increase in fluorescence intensity at 0.2 uM by fluorescence spectroscopic analysis; type: nucleic-acid assay
HeLa [8] = test: Cytotoxicity against human HeLa cells assessed as cell viability incubated for 72 hr by MTT assay; type: functional, cell-based
HeLa [9] = test: Induction of apoptosis in human HeLa cells at 7 uM after 24 to 48 hrs by annexin V/PI- staining based flow cytometric analysis; type: functional, cell-based
Quadruplex DNA [10] = test: Binding affinity to c-KIT2 G4 quadruplex (unknown origin) assessed as increase in fluorescence intensity at 0.2 uM by fluorescence spectroscopic analysis; type: nucleic-acid assay
HeLa [11] = test: Induction of apoptotic cell death in human HeLa cells assessed as morphological changes from the spindle-shaped cells to round-shaped at 50 to 200 uM measured after 24 hrs by acridine orange/ethidium bromide staining based fluorescence microscopy; type: functional; settings: dose 50-200 µM
[12] = Selectivity index, binding affinity to c-MYC G4 quadruplex DNA (unknown origin) to binding affinity c-MYC ds DNA (unknown origin)
Quadruplex DNA [13] = test: Binding affinity to human c-KIT1 G4-quadruplex DNA (unknown origin) by UV- vis spectrophotometric analysis; type: nucleic-acid assay
[14] = Cytotoxicity against human HDFa cells assessed as cell viability incubated for 72 hr by MTT assay; type: cell-based
Quadruplex DNA [15] = test: Binding affinity to Human telomeric H21 G4 quadruplex DNA (unknown origin) in presence of KCl by UV- vis spectrophotometric analysis; type: nucleic-acid assay
Quadruplex DNA [16] = test: Binding affinity to human telomeric H21 G4 quadruplex DNA in presence of NaCl by UV- vis spectrophotometric analysis; type: nucleic-acid assay
HEK-293T = test: Cytotoxicity against human HEK293T cells assessed as cell viability incubated for 72 hr by MTT assay; type: functional, cell-based
[17] = Binding affinity to c-MYC ds DNA (unknown orgin) by UV- vis spectrophotometric analysis
Calf thymus DNA [18] = test: Binding affinity to calf thymus duplex DNA by UV- vis spectrophotometric analysis; type: nucleic-acid assay; settings: Bos taurus
HeLa [19] = test: Induction of apoptotic cell death in human HeLa cells assessed as morphological changes from the spindle-shaped cells to round-shaped at 2 to 10 uM measured after 24 hrs by acridine orange/ethidium bromide staining based fluorescence microscopy; type: functional
Quadruplex DNA [20] = test: Binding affinity to human telomeric H21 G4 quadruplex DNA in presence of KCl assessed as increase in fluorescence intensity at 0.2 uM by fluorescence spectroscopic analysis; type: nucleic-acid assay
Quadruplex DNA [21] = test: Binding affinity to c-KIT2 G4-quadruplex DNA (unknown origin) by UV- vis spectrophotometric analysis; type: nucleic-acid assay
Quadruplex DNA [22] = test: Binding affinity to human telomeric H21 G4 quadruplex DNA in presence of NaCl assessed as increase in fluorescence intensity at 0.2 uM by fluorescence spectroscopic analysis; type: nucleic-acid assay
Quadruplex DNA [23] = test: Binding affinity to c-KIT1 G4 quadruplex (unknown origin) assessed as increase in fluorescence intensity at 0.2 uM by fluorescence spectroscopic analysis; type: nucleic-acid assay
NIH3T3 = test: Cytotoxicity against mouse NIH3T3 cells assessed as cell viability incubated for 72 hr by MTT assay; type: cell-based; settings: NIH3T3, 72 h
Quadruplex DNA [24] = test: Binding affinity to c-KIT1 G4-quadruplex DNA (unknown orgin) assessed increase in melting temperature measured after 12 hrs by thermal denaturation based spectrophotometric analysis; type: nucleic-acid assay
Quadruplex DNA [25] = test: Binding affinity to c-MYC G4-quadruplex DNA (unknown orgin) assessed increase in melting temperature measured after 12 hrs by thermal denaturation based spectrophotometric analysis; type: nucleic-acid assay
HeLa [26] = test: Induction of apoptotic cell death in human HeLa cells assessed as change in nuclear morphology at 5 to 7 uM after 12 hrs by acridine orange/ethidium bromide staining based fluorescence microscopy; type: functional; settings: dose 5-7 µM
Quadruplex DNA [27] = test: Binding affinity to human telomeric H21 G4-quadruplex DNA assessed as slight change in ellipticity of the CD signatures and topology in presence KCl of by circular dichroism spectroscopy; type: nucleic-acid assay
Quadruplex DNA [28] = test: Binding affinity to c-MYC G4-quadruplex DNA (unknown orgin) assessed as slight change in ellipticity of the CD signatures and topology by circular dichroism spectroscopy; type: nucleic-acid assay
Quadruplex DNA [29] = test: Binding affinity to human telomeric H21 G4-quadruplex DNA assessed as slight change in ellipticity of the CD signatures and topology in presence NaCl of by circular dichroism spectroscopy; type: nucleic-acid assay
HeLa [30] = test: Induction of apoptosis in human HeLa cells assessed as nuclear condensation and fragmentation at 7 uM measured after 24 hrs by DAPI staining based confocal laser scanning microscopy analysis; type: functional, cell-based
Calf thymus DNA [31] = test: Binding affinity to calf thymus duplex DNA assessed as slight change in ellipticity of the CD signatures and topology by circular dichroism spectroscopy; type: nucleic-acid assay; settings: Bos taurus
Homo sapiens = species on record: Homo sapiens; test: Binding affinity to c-MYC ds DNA (unknown origin) assessed as slight change in ellipticity of the CD signatures and topology by circular dichroism spectroscopy
Quadruplex DNA [32] = test: Binding affinity to c-MYC G4-quadruplex DNA (unknown orgin) at 100 uM by ethidium bromide displacement assay; type: nucleic-acid assay
HeLa [33] = test: Induction of apoptosis in human HeLa cells assessed as nuclear condensation and fragmentation at 5 uM measured after 24 hrs by DAPI staining based confocal laser scanning microscopy analysis; type: functional, cell-based
Quadruplex DNA [34] = test: Binding affinity to c-MYC G4 quadruplex DNA (unknown orgin) by cyclic voltammetry; type: nucleic-acid assay
HeLa [35] = test: Induction of apoptotic cell death in human HeLa cells assessed as change in nuclear morphology at 3 to 5 uM after 12 hrs by acridine orange/ethidium bromide staining based fluorescence microscopy; type: functional; settings: dose 3-5 µM

Time (Quadruplex DNA [1]) [nanoseconds] | ΔTm (Quadruplex DNA [2]) [°C] | Ka (Quadruplex DNA [4]) | Activity (Quadruplex DNA [5]) | Activity (Quadruplex DNA [7]) | Activity (Quadruplex DNA [10]) | Selectivity Index [12] | Ka (Quadruplex DNA [13]) | Ka (Quadruplex DNA [15]) | Ka (Quadruplex DNA [16]) | Ka [17] | Ka (Calf thymus DNA [18]) | Activity (Quadruplex DNA [20]) | Ka (Quadruplex DNA [21]) | Activity (Quadruplex DNA [22]) | Activity (Quadruplex DNA [23]) | Structure (SMILES) | IC50 (HeLa [8]) [µM] | IC50 [14] [µM] | IC50 (HEK-293T) [µM] | IC50 (NIH3T3) [µM] | other results
0.55 | 5.1 | 2.8 10^6/M | Active | Active | Active | 175 | 1.3 10^6/M | 0.3 10^6/M | 0.6 10^6/M | 0.018 10^6/M | 0.016 10^6/M | Active | 1.8 10^6/M | Active | Active | Cn1cc(NC(=O)c2cccn2C)cc1C(=O)NCCC[N+](C)(C)CC(=O)Nc1ccc2c(c1)C(=O)c1ccc(NC(=O)C[N+](C)(C)CCCNC(=O)c3cc(NC(=O)c4cccn4C)cn3C)cc1C2=O | 7.4 | > 100 | 19 | > 100 | Activity (HeLa [26]): Active; Activity (Quadruplex DNA [27]): Active; Activity (Quadruplex DNA [28]): Active; Activity (Quadruplex DNA [29]): Active; Activity (HeLa [30]): Active; Activity (Calf thymus DNA [31]): Active; Activity (Homo sapiens): Active; ΔTm (Quadruplex DNA [24]): 7.9 °C; ΔTm (Quadruplex DNA [25]): 7.4 °C; Activity (Quadruplex DNA [32]): Active
0.37 | 6.8 | 3.8 10^6/M | Active | Active | Active | 380 | 3.1 10^6/M | 1.1 10^6/M | 0.6 10^6/M | 0.012 10^6/M | 0.01 10^6/M | Active | 4.1 10^6/M | Active | Active | Cn1cc(NC(=O)c2cc(NC(=O)c3cccn3C)cn2C)cc1C(=O)NCCC[N+](C)(C)CC(=O)Nc1ccc2c(c1)C(=O)c1ccc(NC(=O)C[N+](C)(C)CCCNC(=O)c3cc(NC(=O)c4cc(NC(=O)c5cccn5C)cn4C)cn3C)cc1C2=O | 5.3 | > 100 | 15 | > 100 | Activity (HeLa [33]): Active; Activity (Quadruplex DNA [34]): Active; Activity (Quadruplex DNA [27]): Active; Activity (Quadruplex DNA [28]): Active; Activity (Quadruplex DNA [29]): Active; Activity (Calf thymus DNA [31]): Active; Activity (HeLa [35]): Active; Activity (Homo sapiens): Active; ΔTm (Quadruplex DNA [24]): 9.9 °C; ΔTm (Quadruplex DNA [25]): 11.1 °C; Activity (Quadruplex DNA [32]): Active
 |  | 0.16 10^6/M |  |  | Active | 3.2 | 0.11 10^6/M | 0.07 10^6/M | 0.05 10^6/M | 0.05 10^6/M | 0.06 10^6/M | Active | 0.09 10^6/M | Active | Active | C[N+](C)(C)CC(=O)Nc1ccc2c(c1)C(=O)c1ccc(NC(=O)C[N+](C)(C)C)cc1C2=O |  |  |  |  | 

Structure (SMILES) | Time (Quadruplex DNA [1]) [nanoseconds] | ΔTm (Quadruplex DNA [2]) [°C] | Ka (Quadruplex DNA [4]) | Activity (Quadruplex DNA [5]) | Activity (Quadruplex DNA [7]) | Activity (Quadruplex DNA [10]) | Selectivity Index [12] | Ka (Quadruplex DNA [13]) | Ka (Quadruplex DNA [15]) | Ka (Quadruplex DNA [16]) | Ka [17] | Ka (Calf thymus DNA [18]) | Activity (Quadruplex DNA [20]) | Ka (Quadruplex DNA [21]) | Activity (Quadruplex DNA [22]) | Activity (Quadruplex DNA [23]) | IC50 (HeLa [8]) [µM] | IC50 [14] [µM] | IC50 (HEK-293T) [µM] | IC50 (NIH3T3) [µM] | other results
Cn1cccc1C(=O)NCCC[N+](C)(C)CC(=O)Nc1ccc2c(c1)C(=O)c1ccc(NC(=O)C[N+](C)(C)CCCNC(=O)c3cccn3C)cc1C2=O.[Cl-].[Cl-] | 0.54 | 1.2 | 1.4 10^6/M | Active | Active | Active | 70 | 0.6 10^6/M | 0.5 10^6/M | 0.6 10^6/M | 0.025 10^6/M | 0.02 10^6/M | Active | 0.8 10^6/M | Active | Active | > 100 | > 100 | 43 | > 100 | AC50 (HeLa [3]): Active; Activity (HeLa [6]): Active; AC50 (HeLa [9]): Active; Activity (HeLa [11]): Active; AC50 (HeLa [19]): Active; ΔTm (Quadruplex DNA [24]): 4.7 °C; ΔTm (Quadruplex DNA [25]): 3.2 °C
